The numbers were not newly measured in patent US20110224196A1, “TREATMENT OF O[…] APNEA SYNDROME WITH A COMBINATION OF A CARBONIC ANHYDRASE INHIBITOR AND AN […] AGENT” (Vivus, Inc., priority 2010, published 2011), which cites them from elsewhere.

In the case of `NC(=O)C[S+]([O-])C(c1ccccc1)c1ccccc1` (stereo not shown) [Modafinil, 2-[(diphenylmethy)sulfinyl]-N-acetamide], the solubility in acetone result (acetone) is reported as “sparingly or slightly soluble”. Further, the solubility in cyclohexane result (cyclohexane) is on record as “insoluble”. Also, the solubility in methanol entry (methanol) was “sparingly or slightly soluble”. For the setting “water”, the solubility in water entry is listed as “insoluble”.
